Reference: ChEMBL document CHEMBL5385924, “Stereoselective Synthesis of Xylodonin A and 22-Hydroxyxylodonin A and Discovery of Analogues with Cytotoxic Activity” (J Nat Prod, 2024)
Active and inactive are the calls of the source. The calls are words filed in the database; no cut-off is given here.

Tests used:
[1] = tested on: Mycolicibacterium smegmatis; assay: Antibacterial activity against Mycobacterium smegmatis assessed as inhibition of bacterial growth; assay type: functional, organism-based
[2] = tested on: Escherichia coli; assay: Antibacterial activity against Escherichia coli assessed as inhibition of bacterial growth; assay type: functional, organism-based
[3] = tested on: Candida albicans; assay: Antifungal activity against Candida albicans assessed as inhibition of fungal growth; assay type: functional, organism-based
[4] = tested on: Proteus vulgaris; assay: Antibacterial activity against Proteus vulgaris assessed as inhibition of bacterial growth; assay type: functional, organism-based
[5] = tested on: HepG2; assay: Antiproliferative activity against human HepG2 cells assessed as reduction in cell viability measured after 48 hrs by CCK8 assay; assay type: functional, cell-based; details: HepG2, 48 h
[6] = tested on: Pseudomonas aeruginosa; assay: Antibacterial activity against Pseudomonas aeruginosa assessed as inhibition of bacterial growth; assay type: functional, organism-based
[7] = tested on: Salmonella typhimurium; assay: Antibacterial activity against Salmonella typhimurium assessed as inhibition of bacterial growth; assay type: functional, organism-based; details: Salmonella enterica subsp. enterica serovar Typhimurium
[8] = tested on: Staphylococcus aureus; assay: Antibacterial activity against Staphylococcus aureus assessed as inhibition of bacterial growth; assay type: functional, organism-based
[9] = Cytotoxicity against human HL7702 cells assessed as reduction in cell viability measured after 48 hrs by CCK8 assay; assay type: toxicity, cell-based; details: HL7702 (L02) cells
[10] = Selectivity index, ratio of IC50 for cytotoxicity against human HL7702 cells to IC50 for antiproliferative activity against human HepG2 cells; assay type: toxicity, cell-based; details: HL7702 cells versus HepG2 cells, read-out: Ratio IC50
[11] = tested on: HepG2; assay: Induction of apoptosis in human HepG2 cells assessed as late apoptotic cells at 20 uM measured after 48 hrs by AnnexinV-FITC/PI staining based flow cytometry (reference value: 2.73%); assay type: functional
[12] = tested on: HepG2; assay: Induction of apoptosis in human HepG2 cells assessed as late apoptotic cells at 10 uM measured after 48 hrs by AnnexinV-FITC/PI staining based flow cytometry (reference value: 2.73%); assay type: functional
[13] = tested on: HepG2; assay: Induction of apoptosis in human HepG2 cells assessed as necrotic cells at 10 uM measured after 48 hrs by AnnexinV-FITC/PI staining based flow cytometry (reference value: 0.19%); assay type: functional
[14] = tested on: HepG2; assay: Antimetastatic activity against human HepG2 cells assessed as inhibition of cell migration measured after 12 to 24 hrs by scratch wound healing assay; assay type: functional, cell-based; details: time 12-24 hrs
[15] = tested on: HepG2; assay: Induction of apoptosis in human HepG2 cells assessed as early apoptotic cells at 20 uM measured after 48 hrs by AnnexinV-FITC/PI staining based flow cytometry (reference value: 1.21%); assay type: functional
[16] = tested on: HepG2; assay: Inhibition of colony formation in human HepG2 cells assessed as relative colony formation area at 15 uM treated every 6 hrs for 24 hrs followed by culturing in fresh medium for 7 days by Giemsa staining based analysis; assay type: functional; set-up: scale not given: the % may be the effect or the level left
[17] = tested on: HepG2; assay: Induction of apoptosis in human HepG2 cells assessed as viable cells at 20 uM measured after 48 hrs by AnnexinV-FITC/PI staining based flow cytometry (reference value: 95.88%); assay type: functional; details: read-out: Activity
[18] = tested on: HepG2; assay: Induction of apoptosis in human HepG2 cells assessed as viable cells at 10 uM measured after 48 hrs by AnnexinV-FITC/PI staining based flow cytometry (reference value: 95.88%); assay type: functional; details: read-out: Activity
[19] = tested on: HepG2; assay: Induction of apoptosis in human HepG2 cells assessed as early apoptotic cells at 10 uM measured after 48 hrs by AnnexinV-FITC/PI staining based flow cytometry (reference value: 1.21%); assay type: functional
[20] = tested on: HepG2; assay: Inhibition of colony formation in human HepG2 cells assessed as relative colony formation area at 10 uM treated every 6 hrs for 24 hrs followed by culturing in fresh medium for 7 days by Giemsa staining based analysis; assay type: functional; set-up: scale not given: the % may be the effect or the level left
[21] = tested on: HepG2; assay: Induction of apoptosis in human HepG2 cells assessed as necrotic cells at 20 uM measured after 48 hrs by AnnexinV-FITC/PI staining based flow cytometry (reference value: 0.19%); assay type: functional
[22] = tested on: HepG2; assay: Inhibition of colony formation in human HepG2 cells assessed as relative colony formation area at 20 uM treated every 6 hrs for 24 hrs followed by culturing in fresh medium for 7 days by Giemsa staining based analysis; assay type: functional; set-up: scale not given: the % may be the effect or the level left
[23] = tested on: HepG2; assay: Inhibition of colony formation in human HepG2 cells assessed as relative colony formation area at 5 uM treated every 6 hrs for 24 hrs followed by culturing in fresh medium for 7 days by Giemsa staining based analysis; assay type: functional; set-up: scale not given: the % may be the effect or the level left

| IC50 [5] | Structure (SMILES) | Activity [1] | Activity [2] | Activity [3] | Activity [4] | Activity [6] | Activity [7] | Activity [8] | IC50 at 48 h [9] | selectivity ratio [10] | other results |
| --- | --- | --- | --- | --- | --- | --- | --- | --- | --- | --- | --- |
| 5.9 µM | COc1cc([C@@H]2c3cc4c(cc3[C@@H](O[C@@H]3O[C@@H]5CO[C@@H](C)O[C@H]5[C@H](O)[C@H]3O)[C@H]3COC(=O)[C@H]23)OCO4)cc(OC)c1O [ETOPOSIDE] |  |  |  |  |  |  |  | 49.6 µM | 8.4 |  |
| 22.2 µM | CC1(C)CCC[C@]2(C)C3=C(COC3=O)C[C@H](OC(=O)/C=C/c3ccccc3F)[C@@H]12 | inactive | inactive | inactive | inactive | inactive | inactive | inactive | > 100 µM | > 4.5 |  |
| > 50 µM | CC1(C)CCC[C@]2(C)C3=C(COC3=O)C[C@H](OC(=O)/C=C/c3ccccc3)[C@@H]12 | inactive | inactive | inactive | inactive | inactive | inactive | inactive |  |  |  |
| 8.8 µM | CC(=O)Oc1ccc(/C=C/C(=O)O[C@H]2CC3=C(C(=O)OC3)[C@@]3(C)CCCC(C)(C)[C@H]23)cc1 | inactive | inactive | inactive | inactive | inactive | inactive | inactive | > 100 µM | > 11.4 | Activity [11]: 6.23%; Activity [12]: 6.96%; Activity [13]: 0.27%; Activity [14]: Active; Activity [15]: 14.41%; Activity [16]: 5.9%; viability at 20 µM [17]: 79.2%; viability at 10 µM [18]: 91%; Activity [19]: 1.73%; Activity [20]: 8.1%; Activity [21]: 0.2%; Activity [22]: 2.3%; Activity [23]: 11.2% |
| > 50 µM | CC1(C)CCC[C@]2(C)C3=C(COC3=O)C[C@H](OC(=O)/C=C/c3ccc(C(F)(F)F)cc3)[C@@H]12 | inactive | inactive | inactive | inactive | inactive | inactive | inactive |  |  |  |

The next lines start with the compound.

| Structure (SMILES) | IC50 [5] | Activity [1] | Activity [2] | Activity [3] | Activity [4] | Activity [6] | Activity [7] | Activity [8] | IC50 at 48 h [9] | selectivity ratio [10] | other results |
| --- | --- | --- | --- | --- | --- | --- | --- | --- | --- | --- | --- |
| CC1(C)CCC[C@]2(C)C3=C(COC3=O)C[C@H](OC(=O)/C=C/c3ccc(Cl)cc3)[C@@H]12 | > 50 µM | inactive | inactive | inactive | inactive | inactive | inactive | inactive |  |  |  |
| CC1(C)CCC[C@]2(C)C3=C(COC3=O)C[C@H](OC(=O)/C=C/c3ccc(O)cc3)[C@@H]12 | 14.2 µM | inactive | inactive | inactive | inactive | inactive | inactive | inactive | > 100 µM | > 6.9 |  |
| CC1(C)CCC[C@]2(C)C3=C(COC3=O)C[C@H](O)[C@@H]12 | > 50 µM | inactive | inactive | inactive | inactive | inactive | inactive | inactive |  |  |  |
